Data on one compound can be found in patent US20200147058A1, “KRAS INHIBITOR FOR USE IN TREATING CANCER” (Friedrich-Alexander-Universitat Erlangen-Numberg, priority 2016, published 2020).

For one data set, the system named is Htz19 melanoma cells. Nature of the data set: FACS analysis of apoptosis. In kind it is cell-based, human. The following applies: 5 hours, 5 μM DR. In general terms: Flow cytometry measures light scatter and fluorescence of single cells or particles in a stream.
Data set [1] relates to resistant cell clones (SkMel28-R, 451Lu-R). Nature of the data set: real-time cell proliferation of BRAFi-resistant melanoma cells. The format is cell-based, human. The following applies: in combination with 5 or 10 μM PLX. How it is done:
FIGS. 6A through 6H depict that KRASi Prevents Emergence of Resistance and KRAS Expression is Regulated Dynamically in Acquired Resistance to BRAFi. […] Asterisks indicate significant differences (p<0.05) as compared to according control (0 μM PLX). FIGS. 6E and 6F are exemplary Western blot images (FIG. 6E) depicting immunostaining of AKT, pAKT, ERK, pERK, and KRAS. Densitometric values (DM) are also shown, representing relative quantifications. Resistant cell lines 451Lu-R and SkMel28-R were treated with 0, 5, or 10 μM PLX for 8 hours, and according summarized quantification of KRAS protein expression (n=3, FIG. 6F).
FIGS. 7A through 7I present KRAS Inhibition Re-sensitizes BRAF Inhibitor Resistant Cells for Inhibition of Proliferation and Induction of Apoptosis. […] show real-time cell proliferation (exemplary proliferation curve depicted in FIG. 6A, summarized slopes of proliferation curves depicted in FIG. 6B) of PLX-resistant cells treated with si-KRAS (KR) or control si-RNA (CTR), respectively, in combination with 5 or 10 μM PLX. FIGS. 7C and 7D show real-time cell proliferation (exemplary proliferation curve depicted in […], summarized slopes of proliferation curves depicted in FIG. 7D) of PLX-resistant cells treated with Deltarasin (DR) or DMSO, respectively, in combination with 5 or 10 μM PLX, according to FIGS. 7A and 7B. […]

In data set [2] the test system is Mel Im cells. Nature of the data set: three-dimensional, anchorage-independent colony-forming assay. In kind it is cell-based, human. The following applies: Mel Im (BRAFi primary sensitive); DR 5 μM, PLX 10 μM, alone or combined.
For data set [3], the system named is human fibroblast cell lines. As to the kind of experiment: toxicity in non-tumor cells (images). The format is cell-based. The settings on record: doses up to 20 μM, 48 hours. The text has this: (§1) FIGS. 4A through 4H depict that small Molecule KRAS Inhibition Reduces Proliferation and Induces Apoptosis in Melanoma. FIGS. 4A and 4B show proliferation (slope of cell index) of Mel Juso (FIG. 4A) and Mel Im (FIG. 4B) cells treated with DMSO and different concentrations of the KRAS small molecule inhibitor Deltarasin (DR). The cell index as dimensionless parameter for cell proliferative ability was used to determine the half maximal inhibitory concentration (IC50, small graphs) of DR. […] FIG. 4D illustrates exemplary images of different melanoma cell lines (Mel Im, Mel Juso and Mel Ei) treated with 5 μM DR or 5 μM DMSO, respectively, for 24 hours. FIGS. 4E and 4F show images of fibroblast cell lines derived from two different donors (F1, F2) and melanocytes (NHEM) treated DR (20 μM, 48 hours) or DMSO (FIG. 4E), and lactate dehydrogenase (LDH) quantification (FIG. 4F) in cell supernatants (optic density, OD) of NHEM after treatment with low dose DMSO, DR (5 μM), and DR (10 μM), respectively.

The subject of data set [4] is 451Lu-R and SkMel28-R cells. Nature of the data set: long-term treatment of PLX-resistant cell lines, surviving tumor cells. The following applies: 8 μM DR, 28 days. The format is cell-based, human.
Data set [5] has as its system Mel Im cells. Nature of the data set: long-term treatment, emergence of surviving tumor cells and drug resistance. The format is cell-based, human. The settings on record: 28 days, IC50 or 2×IC50.
Text: as §1
FIGS. 6A through 6H depict that KRASi Prevents Emergence of Resistance and KRAS Expression is Regulated Dynamically in Acquired Resistance to BRAFi. […] Asterisks indicate significant differences (p<0.05) as compared to according control (0 μM PLX). […] Densitometric values (DM) are also shown, representing relative quantifications. […]

The test system of data set [6] is murine hepatoma cell line Hepa129. As to the kind of experiment: cell cycle FACS analysis (propidium iodide staining). In kind it is cell-based. The settings on record: 5-6 hours of treatment. The text has this:
FIG. 13 depicts Deltarasin Inducing G2/M-Cell Cycle Arrest in Murine HCC Cells.

A further data set concerns HepG2 hepatoma cells. As to the kind of experiment: Annexin V / PI staining with FACS analysis of apoptosis. The settings on record: 8 μM. In kind it is cell-based, human.
The subject of the next data set is HCC tumor cells. Nature of the data set: tumor cell toxicity in HCC. In kind it is cell-based, human. The settings on record: higher doses of DR (>8 μM).

For `c1ccc(Cn2c(-c3ccc(OC[C@H](C4CCNCC4)n4c(-c5ccccc5)nc5ccccc54)cc3)nc3ccccc32)cc1` [Deltarasin, (S)-1-Benzyl-2-(4-(2-(2-phenyl-1H-benzo[d]imidazol-1-yl)-2-(piperidin-4-yl)ethoxy)phenyl)-1H-benzo[d]imidazole], in the data set with Htz19 melanoma cells, the “apoptosis (FACS), short treatment” value is given as “only slightly induced apoptosis”. Besides, the “proliferation of PLX-treated, BRAFi-resistant melanoma cells” value in [1] was “dose dependent inhibition of proliferation”. In addition, the “three-dimensional colony formation and proliferation of pre-formed colonies” value with Mel Im cells [2] is given as “similarly effective as PLX”. Further, the “toxic effects in human fibroblast cell lines” value in [3] is listed as “no toxic effects”. In data set [4], the “emergence of surviving tumor cells (cross-resistance to DR)” value is listed as “completely abolish the emergence of surviving tumor cells”. Moreover, in the data set with Mel Im cells [5], the “surviving tumor cells after long-term treatment” value is on record as “no surviving tumor cells were detected”. For the same compound, in data set [6], the “G2/M-Cell Cycle Arrest” value is “dose-dependently induces” and the SubG1 fractions result is “increased”. The “induction of apoptosis (FACS)” value in the data set on HepG2 hepatoma cells was “marked dose-dependent induction of apoptosis”. In the data set on HCC tumor cells, the tumor cell toxicity result is given as “marked tumor cell toxicity”.
